The compounds below were run against Gastrin/cholecystokinin type B receptor (Cavia porcellus) (assay: Half-maximal inhibition of binding of [125I]gastrin to guinea pig gastric glands).

Row | SMILES | IC50 [µM]
1 | O=C1Nc2ccc(Cl)cc2C(c2ccccc2)=N[C@@H]1COCc1ccccc1 | 13
2 | CN1C(=O)[C@@H](Cc2c[nH]c3ccccc23)N=C(c2ccccc2)c2ccccc21 | 21
3 | O=C(O)CN1C(=O)[C@@H](Cc2c[nH]c3ccccc23)N=C(c2ccccc2F)c2ccccc21 [CCK antagonist synthetic 13] | 5
4 | CC(C)C[C@H]1N=C(c2ccccc2)c2cc(Cl)ccc2NC1=O | 38
5 | CN1C(=O)[C@@H](Cc2cn(C)c3ccccc23)N=C(c2ccccc2)c2ccccc21 | 67
6 | O=C1Nc2ccccc2C1C[C@H]1N=C(c2ccccc2)c2cc(Cl)ccc2NC1=O (stereo not given in full) | > 100
7 | CCN1C(=O)[C@@H](Cc2c[nH]c3ccccc23)N=C(c2ccccc2F)c2ccccc21 | > 100
8 | O=C(O)CCN1C(=O)[C@@H](Cc2c[nH]c3ccccc23)N=C(c2ccccc2F)c2ccccc21 | 5.8
9 | CC(C)CCN1C(=O)[C@@H](Cc2c[nH]c3ccccc23)N=C(c2ccccc2F)c2ccccc21 | 23
10 | CC(C)CC(N)C(=O)N1CC(CC2N=C(c3ccccc3)c3ccccc3NC2=O)c2ccccc21 (stereo not given) | > 100

From BindingDB's records for doi:10.1021/jm00390a019 (1987)
